Measurements published in patent publication US20230192631A1, “Biphenyl Derivatives” (Hoffmann-La Roche Inc., priority 2020, published 2023).

Target: T1, human cGAS (residues 161-522) (Homo sapiens, UniProt Q8N884)
T1 construct: Recombinantly expressed purified human cGAS (residues 161-522) was used at 25 nM; made in house
Test: Malachite Green assay to measure cGAS activity
Assay type: biochemical
Conditions: coupled enzymatic assay, phosphate detection by Malachite Green; 25 nM cGAS, 80 μM ATP, 80 μM GTP, 100 nM ISD, 4 hour at RT
Experimental: Compounds were tested for cGAS inhibition in a coupled enzymatic assay based on Phosphate detection by Malachite Green. Final assay conditions were 20 mM TRIS pH 7.5 (Applichem), 5 mM MgCl2 (Sigma) and 0.01% BSA (Sigma) supplemented with 80 μM ATP (Sigma), 80 μM GTP (Sigma) and 100 nM Interferon Stimulating DNA (ISD) (Microsynth). Recombinantly expressed purified human cGAS (residues 161-522) was used at 25 nM.
All compounds were prepared as 10 mM stock solutions in DMSO and a 16 pt dilution series in DMSO with a dilution factor of 2.5 was prepared. 1 μL of DMSO dilution series was transferred to 32.3 μL reaction buffer, mixed by pipetting up/down, spun for 1 minute at 3000 rpm and was visually inspected for precipitation. 5 μL of 3-fold enzyme stock solution were transferred to an empty 384-well Black/Clear Flat Bottom Polystyrene NBS (Corning) rows 3-24. Rows 1-2 were filled with assay buffer. Plates were spun 10 seconds at 1000 rpm (164×g). 5 μL of compound intermediate dilution was added and mixed by pipetting up/down to rows 3-24. Rows 1-2 were filled with 3.1% DMSO assay buffer. Plates were spun 10 seconds at 1000 rpm (164×g). 5 μL 3-fold Nucleotide/DNA mix was added to all wells to start the reaction. Plates were spun 10 seconds at 1000 rpm (164×g) and incubated for 4 hour at room temperature (RT) in the dark. 5 μL 4 U/mL PPase (Sigma) were added to all wells. Plates spun 10 seconds at 1000 rpm (164×g). 10 μL BioMol green Solution (Enzo Life Sciences) was added to all wells. Plates spun 10 seconds at 1000 rpm (164×g) and incubated 30 minutes at RT in the dark. Absorbance data was collected 620 nm on an EnVision Multilable Reader (Perkin Elmer) and the following measurement settings were used: excitation filter photometric was 620 nm; excitation from the top; measurement height was 1 mm; number of flashes was 30; number of flashes integrated was 1.
All plates are checked for abnormalities and outliers in the Blank Control (no protein, row 1) and the Neutral Control (no compound, row 2) are excluded using the 3*SD rule. Data was normalized to 0 and 100% by Blank and Neutral Control and each curve was fitted and judged using the 4 parameter logistic equation to determine the IC50 for cGAS inhibition.
Table 1 provides IC50 values (μM) for cGAS inhibition obtained for particular examples of the present invention as measured by the above-described assay.

T1 sequence (Q8N884 161-522): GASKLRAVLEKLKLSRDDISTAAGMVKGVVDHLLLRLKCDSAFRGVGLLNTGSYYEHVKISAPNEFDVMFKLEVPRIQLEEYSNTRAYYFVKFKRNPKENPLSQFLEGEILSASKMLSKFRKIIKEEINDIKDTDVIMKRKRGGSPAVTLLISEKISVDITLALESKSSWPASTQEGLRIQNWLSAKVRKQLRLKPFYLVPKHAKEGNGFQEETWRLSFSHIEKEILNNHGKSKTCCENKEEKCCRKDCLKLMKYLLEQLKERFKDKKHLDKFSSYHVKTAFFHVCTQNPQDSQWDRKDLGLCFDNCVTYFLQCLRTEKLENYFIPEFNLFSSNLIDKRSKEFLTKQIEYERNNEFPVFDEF

SMILES	IC50 [nM]
Cc1ccc(-c2ccc(NC(=O)CN3CCOCC3)c(C(=O)O)c2)c(Cl)c1 [Example 4, 5-(2-Chloro-4-methylphenyl)-2-[(2-morpholin-4-ylacetyl)amino]benzoic Acid]	320
Cc1ccc(-c2ccc(NC(=O)Cc3cnc(C)[nH]c3=O)c(C(=O)O)c2)c(Cl)c1 [Example 2, 2′-Chloro-4′-methyl-4-(2-(2-methyl-6-oxo-1,6-dihydropyrimidin-5-yl)acetamido)-[1,1′-biphenyl]-3-carboxylic Acid]	2090
Cc1ccc(-c2ccc(OCCN3CCS(=O)(=O)CC3)c(C(=O)O)c2)c(Cl)c1 [Example 7, 5-(2-Chloro-4-methylphenyl)-2-[2-(1,1-dioxo-1,4-thiazinan-4-yl)ethoxy]benzoic Acid]	2670
Cc1ccc(-c2ccc(OCc3ccccc3)c(C(=O)O)c2)c(Cl)c1 [Example 8, 5-(2-Chloro-4-methylphenyl)-2-phenylmethoxybenzoic Acid]	4210
Cc1ccc(-c2ccc(OCCn3ccnc3)c(C(=O)O)c2)c(Cl)c1 [Example 6, 5-(2-Chloro-4-methylphenyl)-2-(2-imidazol-1-ylethoxy)benzoic Acid]	2800
Cc1ccc(-c2ccc(NC(=O)Cc3ccccc3)c(C(=O)O)c2)c(Cl)c1 [Example 5, 5-(2-Chloro-4-methylphenyl)-2-[(2-phenylacetyl)amino]benzoic Acid]	3070
Cc1ccc(-c2ccc(NC(=O)CCN3CCOCC3)c(C(=O)O)c2)c(Cl)c1 [Example 3, 2′-Chloro-4′-methyl-4-(3-morpholinopropanamido)-[1,1′-biphenyl]-3-carboxylic Acid]	4820
Cc1ccc(-c2ccc(NC(=O)Cn3cncn3)c(C(=O)O)c2)c(Cl)c1 [Example 1, 4-(2-(1H-1,2,4-Triazol-1-yl)acetamido)-2′-chloro-4′-methyl-[1,1′-biphenyl]-3-carboxylic Acid]	1830
